According to patent US10023559B2 (Hoffmann-La Roche Inc., priority 2014, dated 2018):
pKi: −log10 of the molar value.

Experiments:
[1] = biological target: rat TAAR1 (Rattus norvegicus (Rat), UniProt Q923Y9); assay: Radioligand binding assay on rat TAAR1; details: read-out: Ki(μM) rat; rat TAAR1, HEK-293 membranes, second value of cell pair mouse/rat
Protocol: (§1) Membrane Preparation and Radioligand Binding.
HEK-293 cells stably expressing rat TAAR1 were maintained at 37° C. and 5% CO2 in DMEM high glucose medium, containing fetal calf serum (10%, heat inactivated for 30 min at 56° C.), penicillin/streptomycin (1%), and 375 μg/ml geneticin (Gibco). Cells were released from culture flasks using trypsin/EDTA, harvested, washed twice with ice-cold PBS (without Ca^2+ and Mg^2+), pelleted at 1,000 rpm for 5 min at 4° C., frozen and stored at −80° C. Frozen pellets were suspended in 20 ml HEPES-NaOH (20 mM, pH 7.4) containing 10 mM EDTA and homogenized with a Polytron (PT 6000, Kinematica) at 14,000 rpm for 20 s. The homogenate was centrifuged at 48,000×g for 30 min at 4° C. Subsequently, the supernatant was removed and discarded, and the pellet resuspended in 20 ml HEPES-NaOH (20 mM, pH 7.4) containing 0.1 mM EDTA using the Polytron (20 s at 14,000 rpm). This procedure was repeated and the final pellet resuspended in HEPES-NaOH containing 0.1 mM EDTA and homogenized using the Polytron. Typically, aliquots of 2 ml membrane portions were stored at −80° C. With each new membrane batch the dissociation constant (Kd) was determined via a saturation curve. […] Nonspecific binding was defined as the amount of [H]—(S)-4-[(ethyl-phenyl-amino)-methyl]-4,5-dihydro-oxazol-2-ylamine bound in the presence of 10 M unlabeled ligand. All compounds were tested at a broad range of concentrations (10 pM to 10 μM) in duplicates. […] The 96 deep well plates were incubated for 1 hr at 4° C. Incubations were terminated by rapid filtration through Unifilter-96 plates (Packard Instrument Company) and glass filters GF/C (Perkin Elmer) presoaked for 1 hr in polyethylenimine (0.3%) and washed 3 times with 1 ml of cold binding buffer. After addition of 45 μl of Microscint 40 (PerkinElmer) the Unifilter-96 plate was sealed and after 1 hr the radioactivity counted using a TopCount Microplate Scintillation Counter (Packard Instrument Company).

[2] = biological target: mouse TAAR1 (Mus musculus (Mouse), UniProt Q923Y8); assay: Radioligand binding assay on mouse TAAR1
mouse TAAR1, sequence (Q923Y8 whole entry): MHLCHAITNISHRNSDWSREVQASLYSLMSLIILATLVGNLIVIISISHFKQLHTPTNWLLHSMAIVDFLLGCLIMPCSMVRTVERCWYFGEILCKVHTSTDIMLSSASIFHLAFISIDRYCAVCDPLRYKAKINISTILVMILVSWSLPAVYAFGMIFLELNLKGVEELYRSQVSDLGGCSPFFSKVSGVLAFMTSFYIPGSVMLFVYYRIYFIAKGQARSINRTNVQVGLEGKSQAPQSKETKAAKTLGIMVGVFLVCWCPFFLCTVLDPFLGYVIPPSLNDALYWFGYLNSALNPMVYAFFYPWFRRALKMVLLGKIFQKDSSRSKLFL
Protocol: as §1
HEK-293 cells stably expressing mouse TAAR1 were maintained at 37° C. and 5% CO2 in DMEM high glucose medium, containing fetal calf serum (10%, heat inactivated for 30 min at 56° C.), penicillin/streptomycin (1%), and 375 μg/ml geneticin (Gibco). Cells were released from culture flasks using trypsin/EDTA, harvested, washed twice with ice-cold PBS (without Ca^2+ and Mg^2+), pelleted at 1,000 rpm for 5 min at 4° C., frozen and stored at −80° C. Frozen pellets were suspended in 20 ml HEPES-NaOH (20 mM, pH 7.4) containing 10 mM EDTA and homogenized with a Polytron (PT 6000, Kinematica) at 14,000 rpm for 20 s. The homogenate was centrifuged at 48,000×g for 30 min at 4° C. Subsequently, the supernatant was removed and discarded, and the pellet resuspended in 20 ml HEPES-NaOH (20 mM, pH 7.4) containing 0.1 mM EDTA using the Polytron (20 s at 14,000 rpm). This procedure was repeated and the final pellet resuspended in HEPES-NaOH containing 0.1 mM EDTA and homogenized using the Polytron. Typically, aliquots of 2 ml membrane portions were stored at −80° C. With each new membrane batch the dissociation constant (Kd) was determined via a saturation curve. […] Nonspecific binding was defined as the amount of ^3[H]—(S)-4-[(ethyl-phenyl-amino)-methyl]-4,5-dihydro-oxazol-2-ylamine bound in the presence of 10 M unlabeled ligand. All compounds were tested at a broad range of concentrations (10 pM to 10 μM) in duplicates. […] The 96 deep well plates were incubated for 1 hr at 4° C. Incubations were terminated by rapid filtration through Unifilter-96 plates (Packard Instrument Company) and glass filters GF/C (Perkin Elmer) presoaked for 1 hr in polyethylenimine (0.3%) and washed 3 times with 1 ml of cold binding buffer. After addition of 45 μl of Microscint 40 (PerkinElmer) the Unifilter-96 plate was sealed and after 1 hr the radioactivity counted using a TopCount Microplate Scintillation Counter (Packard Instrument Company).

rat TAAR1, sequence (Q923Y9 whole entry): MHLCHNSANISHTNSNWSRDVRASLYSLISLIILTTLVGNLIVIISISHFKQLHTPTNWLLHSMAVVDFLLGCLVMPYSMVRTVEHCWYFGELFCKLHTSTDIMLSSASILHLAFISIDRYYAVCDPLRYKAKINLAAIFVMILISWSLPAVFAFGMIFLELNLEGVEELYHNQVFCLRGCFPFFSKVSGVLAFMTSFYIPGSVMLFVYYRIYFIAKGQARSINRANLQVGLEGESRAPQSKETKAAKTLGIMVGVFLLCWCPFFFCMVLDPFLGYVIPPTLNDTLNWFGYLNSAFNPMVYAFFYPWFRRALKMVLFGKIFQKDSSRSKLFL

Compound | Ki [1] | pKi [2]
c1ccc(CC2CNC2)cc1 [Example 1, 3-benzylazetidine] | 0.701 µM | 5.80
CN(c1ccc(NC(=O)c2ccnc(C(F)(F)F)c2)cc1)C1CNC1 [Example 2, N-[4-[azetidin-3-yl(methyl)amino]phenyl]-2-(trifluoromethyl)pyridine-4-carboxamide] | 0.211 µM | 7.57
O=C(Nc1ccc(NC2CNC2)cc1)c1ccnc(C(F)(F)F)c1 [Example 3, N-[4-(azetidin-3-ylamino)phenyl]-2-(trifluoromethyl)pyridine-4-carboxamide] | 0.66 µM | 7.11
O=C(Nc1ccc(OC2CNC2)cc1)c1ccc(Cl)cc1 [Example 4, N-(4-(azetidin-3-yloxy)phenyl)-4-chlorobenzamide] | 0.0087 µM | 8.96
O=C(Nc1ccc(OC2CNC2)cc1)c1ccnc(C(F)(F)F)c1 [Example 5, N-(4-(azetidin-3-yloxy)phenyl)-2-(trifluoromethyl)isonicotinamide] |  | 7.91
O=C(Nc1ccc(OC2CNC2)cc1)c1cnc(C(F)(F)F)nc1 [Example 6, N-(4-(azetidin-3-yloxy)phenyl)-2-(trifluoromethyl)pyrimidine-5-carboxamide] |  | 7.71
COc1cc(C(=O)Nc2ccc(OC3CNC3)cc2)cc(C#N)n1 [Example 7, N-(4-(azetidin-3-yloxy)phenyl)-2-cyano-6-methoxyisonicotinamide] |  | 8.25
FC(F)(F)c1nccc(Nc2ccc(OC3CNC3)cc2)n1 [Example 8, N-[4-(azetidin-3-yloxy)phenyl]-2-(trifluoromethyl)pyrimidin-4-amine] | 0.165 µM | 7.26
FC(F)(F)c1cnc(Nc2ccc(OC3CNC3)cc2)nc1 [Example 9, N-(4-(azetidin-3-yloxy)phenyl)-5-(trifluoromethyl)pyrimidin-2-amine] | 0.105 µM | 7.32
O=C(Nc1ccc(OC2CNC2)cc1)c1cc(C2CC2)n[nH]1 [Example 10, N-(4-(azetidin-3-yloxy)phenyl)-3-cyclopropyl-1H-pyrazole-5-carboxamide] | 0.0887 µM | 6.38
CCc1n[nH]c(C(=O)Nc2ccc(OC3CNC3)cc2)c1C [Example 11, N-(4-(azetidin-3-yloxy)phenyl)-3-ethyl-4-methyl-1H-pyrazole-5-carboxamide] | 0.0808 µM | 7.19
CC(C)c1cc(C(=O)Nc2ccc(OC3CNC3)cc2)[nH]n1 [Example 12, N-(4-(azetidin-3-yloxy)phenyl)-3-isopropyl-1H-pyrazole-5-carboxamide] | 0.0927 µM | 6.86
O=C(Nc1ccc(OC2CNC2)cc1)c1[nH]nc(C2CC2)c1Cl [Example 13, N-(4-(azetidin-3-yloxy)phenyl)-4-chloro-3-cyclopropyl-1H-pyrazole-5-carboxamide] | 0.0178 µM | 8.48
O=C(Nc1ccc(OC2CNC2)cc1)c1cnc(C2CC2)nc1 [Example 14, N-(4-(azetidin-3-yloxy)phenyl)-2-cyclopropylpyrimidine-5-carboxamide] | 0.1 µM | 7.83
CCc1ncc(C(=O)Nc2ccc(OC3CNC3)cc2)cn1 [Example 15, N-[4-(azetidin-3-yloxy)phenyl]-2-ethyl-pyrimidine-5-carboxamide] | 0.261 µM | 7.24
Cc1ncc(C(=O)Nc2ccc(OC3CNC3)cc2)cn1 [Example 16, N-[4-(azetidin-3-yloxy)phenyl]-2-methyl-pyrimidine-5-carboxamide] | 0.633 µM | 7.13
Cn1nc(C(F)(F)F)cc1C(=O)Nc1ccc(OC2CNC2)cc1 [Example 17, N-[4-(azetidin-3-yloxy)phenyl]-2-methyl-5-(trifluoromethyl)pyrazole-3-carboxamide] | 0.0969 µM | 7.14
O=C(NCc1ccc(F)cc1)c1ccc(OC2CNC2)cc1 [Example 18, 4-(azetidin-3-yloxy)-N-[(4-fluorophenyl)methyl]benzamide] | 1.63 µM | 6.96
O=C(Nc1ccc(OC2CNC2)cc1)c1cnc(OCC(F)(F)F)nc1 [Example 19, N-(4-(azetidin-3-yloxy)phenyl)-2-(2,2,2-trifluoroethoxy)pyrimidine-5-carboxamide] | 0.0208 µM | 7.89
O=C(Nc1ccccc1)c1ccc(OC2CNC2)cc1 [Example 20, 4-(azetidin-3-yloxy)-N-phenyl-benzamide] | 1.03 µM | 6.32
O=C(Nc1ccc(OC2CNC2)cc1)c1nn(CC(F)(F)F)cc1Cl [Example 21, N-[4-(azetidin-3-yloxy)phenyl]-4-chloro-1-(2,2,2-trifluoroethyl)pyrazole-3-carboxamide] | 0.0207 µM | 6.19
CCn1cc(Cl)c(C(=O)Nc2ccc(OC3CNC3)cc2)n1 [Example 22, N-[4-(azetidin-3-yloxy)phenyl]-4-chloro-1-ethyl-pyrazole-3-carboxamide] | 0.0672 µM | 5.69

Compound | Ki [1] | pKi [2]
O=C(Nc1ccc(Cl)cc1)c1ccc(OC2CNC2)cc1 [Example 23, 4-(azetidin-3-yloxy)-N-(4-chlorophenyl)benzamide] | 0.038 µM | 8.00
O=C(Nc1ccc(OC2CNC2)cc1)c1cc(C(F)(F)F)n[nH]1 [Example 24, N-(4-(azetidin-3-yloxy)phenyl)-3-(trifluoromethyl)-1H-pyrazole-5-carboxamide] | 0.0701 µM | 7.48
O=C(Nc1ccc(OC2CNC2)c(F)c1)c1[nH]nc(C2CC2)c1Cl [Example 25, N-[4-(azetidin-3-yloxy)-3-fluoro-phenyl]-4-chloro-3-cyclopropyl-1H-pyrazole-5-carboxamide] | 0.0113 µM | 8.52
O=C(Nc1ccc(OC2CNC2)c(F)c1)c1cnc(C(F)(F)F)nc1 [Example 26, N-[4-(azetidin-3-yloxy)-3-fluoro-phenyl]-2-(trifluoromethyl)pyrimidine-5-carboxamide] | 0.0238 µM | 7.79
O=C(Nc1ccc(OC2CNC2)c(F)c1)c1cnc(C2CC2)nc1 [Example 27, N-[4-(azetidin-3-yloxy)-3-fluoro-phenyl]-2-cyclopropyl-pyrimidine-5-carboxamide] |  | 7.81
CCOc1ccc(C(=O)Nc2ccc(OC3CNC3)c(F)c2)cn1 [Example 28, N-[4-(azetidin-3-yloxy)-3-fluoro-phenyl]-6-ethoxy-pyridine-3-carboxamide] | 0.0284 µM | 8.02
Cn1nc(C(F)(F)F)c(Cl)c1C(=O)Nc1ccc(OC2CNC2)cc1 [Example 29, N-[4-(azetidin-3-yloxy)phenyl]-4-chloro-2-methyl-5-(trifluoromethyl)pyrazole-3-carboxamide] | 0.0503 µM | 7.54
O=C(Nc1ccc(Cl)nc1)c1ccc(OC2CNC2)cc1 [Example 30, 4-(azetidin-3-yloxy)-N-(6-chloropyridin-3-yl)benzamide] | 0.527 µM | 7.72
O=C(Nc1ccc(OC2CNC2)cc1)c1[nH]nc(C2CC2)c1Br [Example 31, N-[4-(azetidin-3-yloxy)phenyl]-4-bromo-3-cyclopropyl-1H-pyrazole-5-carboxamide] | 0.0151 µM | 8.44
CC(C)(C)c1n[nH]c(C(=O)Nc2ccc(OC3CNC3)cc2)c1Cl [Example 32, N-[4-(azetidin-3-yloxy)phenyl]-3-tert-butyl-4-chloro-1H-pyrazole-5-carboxamide] | 0.0145 µM | 7.87
CC(C)c1n[nH]c(C(=O)Nc2ccc(OC3CNC3)cc2)c1Cl [Example 33, N-[4-(azetidin-3-yloxy)phenyl]-4-chloro-3-isopropyl-1H-pyrazole-5-carboxamide] | 0.0115 µM | 8.12
O=C(Nc1ccc(OC2CNC2)cc1)c1[nH]nc(-c2ccc(Cl)cc2)c1Cl [Example 34, N-[4-(azetidin-3-yloxy)phenyl]-4-chloro-3-(4-chlorophenyl)-1H-pyrazole-5-carboxamide] | 0.0021 µM | 9.05
O=C(Nc1ccc(SC2CNC2)cc1)c1[nH]nc(C2CC2)c1Cl [Example 35, N-[4-(azetidin-3-ylsulfanyl)phenyl]-4-chloro-3-cyclopropyl-1H-pyrazole-5-carboxamide] | 0.0466 µM | 8.51
O=C(Nc1ccc(OC2CNC2)cc1F)c1[nH]nc(C2CC2)c1Cl [Example 36, N-[4-(azetidin-3-yloxy)-2-fluoro-phenyl]-4-chloro-3-cyclopropyl-1H-pyrazole-5-carboxamide] | 0.029 µM | 7.86
O=C(Nc1ccc(Cl)c(C(F)(F)F)c1)c1ccc(OC2CNC2)cc1 [Example 37, 4-(azetidin-3-yloxy)-N-(4-chloro-3-(trifluoromethyl)phenyl)benzamide] | 0.0026 µM | 9.15
O=C(Nc1ccc(OC2CNC2)cc1F)c1cnc(C2CC2)nc1 [Example 38, N-[4-(azetidin-3-yloxy)-2-fluoro-phenyl]-2-cyclopropyl-pyrimidine-5-carboxamide] | 0.853 µM | 7.45
O=C(Nc1ccc(OC2CNC2)cc1F)c1cnc(C(F)(F)F)nc1 [Example 39, N-[4-(azetidin-3-yloxy)-2-fluoro-phenyl]-2-(trifluoromethyl)pyrimidine-5-carboxamide] | 0.476 µM | 7.20
O=C(Nc1ccc(OC2CNC2)cc1)c1[nH]nc(C(F)(F)F)c1Cl [Example 40, N-[4-(azetidin-3-yloxy)phenyl]-4-chloro-3-(trifluoromethyl)-1H-pyrazole-5-carboxamide] | 0.0142 µM | 8.55
COc1ccc(C[C@@H]2NC[C@@H]2F)cc1 [Example 96, (2S,3S)-3-fluoro-2-(4-methoxybenzyl)azetidine] |  | 5.56
COc1ccc(C[C@@H]2NC[C@H]2F)cc1 [Example 97, (2S,3R)-3-fluoro-2-(4-methoxybenzyl)azetidine] |  | 5.79
COc1ccc(C[C@H]2NC[C@H]2F)cc1 [Example 98, (2R,3R)-3-fluoro-2-(4-methoxybenzyl)azetidine] |  | 6.70
COc1ccc(C[C@H]2NC[C@@H]2F)cc1 [Example 99, (2R,3S)-3-fluoro-2-(4-methoxybenzyl)azetidine] |  | 6.70
